Here are results for five molecules from US10105357B2, “Indication of antibiotic drugs for preparation of cancer inhibition pharmaceutical composition” (LAUNX BIOMEDICAL CO., LTD., priority 2014, dated 2018).

Where a name gives a salt, the structure may show the parent alone. Read-outs that look alike come from different tables or passages of the source.

What all share (format): cell-based, human
In test [1] the test system is HeLa (Cervix Adenocarcinoma). In words: Cell viability analysis, cervical cancer HeLa. The conditions noted are these: Homo sapiens, HeLa, 72 h.
For test [2], the system named is HI650 (Lung Adenocarcinoma). In words: Cell viability analysis, lung cancer HI650. The following applies: Homo sapiens, NCI-H1650, 72 h.
Test [3] concerns PC3 (p53−) (Prostate Adenocarcinoma). Description: Cell viability analysis, prostate cancer PC3. The conditions noted are these: Homo sapiens, 72 h.
The subject of test [4] is A549 (Lung Adenocarcinoma). In words: Cell viability analysis, lung cancer A549. The following applies: Homo sapiens, A549, 72 h.
Test [5] has as its system MKN-45 (Gastric Adenocarcinoma). In words: Cell viability analysis, gastric cancer MKN-45. The following applies: Homo sapiens, MKN-45, 72 h.
Test [6] relates to AGS (Gastric Adenocarcinoma). In words: Cell viability analysis, gastric cancer AGS. The following applies: Homo sapiens, 72 h.
The subject of test [7] is HL-60 (Acute Promyelocytic Leukemia). In words: Cell viability analysis, leukemia HL-60. The following applies: Homo sapiens, HL-60, 72 h.
Test [8] concerns MCF7 (Mammary Gland, Adenocarcinoma). Description: Cell viability analysis, breast cancer MCF7. The following applies: Homo sapiens, MCF7, 72 h.
Test [9] deals with A375 (Amelanotic Melanoma). In words: Cell viability analysis, skin cancer A375. The following applies: Homo sapiens, A-375, 72 h.
For test [10], the system named is HepG2 (Hepatocellular Carcinoma). Description: Cell viability analysis, hepatic cancer HepG2. The conditions noted are these: Homo sapiens, HepG2, 72 h.
In test [11] the test system is cancer cell lines. In words: Cell viability analysis (WST-1) on cancer cell lines. The following applies: drug 10 μM, 72 hours, WST-1; Table 3.
Test [12] has as its system LoVo (Colorectal Adenocarcinoma). Description: Cell viability analysis, colon cancer LoVo. The conditions noted are these: Homo sapiens, LoVo, 72 h, read-out: cell viability (survival rate), LoVo, drug 10 μM, 72 hours, WST-1, OD450 nm. A general note: Formazan colour is commonly taken as a measure of viable cells.
Test [13] relates to TSGH-8301 (Urinary Bladder Carcinoma). Description: Cell viability analysis, bladder cancer TSGH-8301. The conditions noted are these: Homo sapiens, 72 h.
Where [14] appears, read: read-out: cell viability (survival rate), HeLa, drug 10 μM, 72 hours, WST-1, OD450 nm.
Where [15] appears, read: read-out: cell viability (survival rate), H1650, drug 10 μM, 72 hours, WST-1, OD450 nm.
Where [16] appears, read: read-out: cell viability (survival rate), PC3, drug 10 μM, 72 hours, WST-1, OD450 nm.
[17] abbreviates: read-out: cell viability (survival rate), A549, drug 10 μM, 72 hours, WST-1, OD450 nm.
Where [18] appears, read: read-out: cell viability (survival rate), MKN-45, drug 10 μM, 72 hours, WST-1, OD450 nm.
Setting [19] is: read-out: cell viability (survival rate), AGS, drug 10 μM, 72 hours, WST-1, OD450 nm.
Setting [20] is: read-out: cell viability (survival rate), HL-60, drug 10 μM, 72 hours, WST-1, OD450 nm.
Setting [21] is: read-out: cell viability (survival rate), MCF7, drug 10 μM, 72 hours, WST-1, OD450 nm.
Setting [22] is: read-out: cell viability (survival rate), A375, drug 10 μM, 72 hours, WST-1, OD450 nm.
The mark [23] stands for this setting: read-out: cell viability (survival rate), HepG2, drug 10 μM, 72 hours, WST-1, OD450 nm.
[24] abbreviates: read-out: cell viability (survival rate), TSGH, drug 10 μM, 72 hours, WST-1, OD450 nm.
[25] abbreviates: drug 10 μM, 72 hours, WST-1, OD450 nm, read-out: cell viability (survival rate), HeLa.
The mark [26] stands for this setting: drug 10 μM, 72 hours, WST-1, OD450 nm, read-out: cell viability (survival rate), H1650.
Where [27] appears, read: drug 10 μM, 72 hours, WST-1, OD450 nm, read-out: cell viability (survival rate), PC3.
Setting [28] is: drug 10 μM, 72 hours, WST-1, OD450 nm, read-out: cell viability (survival rate), A549.
Where [29] appears, read: drug 10 μM, 72 hours, WST-1, OD450 nm, read-out: cell viability (survival rate), MKN-45.
The mark [30] stands for this setting: drug 10 μM, 72 hours, WST-1, OD450 nm, read-out: cell viability (survival rate), AGS.
The mark [31] stands for this setting: drug 10 μM, 72 hours, WST-1, OD450 nm, read-out: cell viability (survival rate), HL-60.
Where [32] appears, read: drug 10 μM, 72 hours, WST-1, OD450 nm, read-out: cell viability (survival rate), MCF7.
The mark [33] stands for this setting: drug 10 μM, 72 hours, WST-1, OD450 nm, read-out: cell viability (survival rate), A375.
Where [34] appears, read: drug 10 μM, 72 hours, WST-1, OD450 nm, read-out: cell viability (survival rate), HepG2.
Setting [35] is: drug 10 μM, 72 hours, WST-1, OD450 nm, read-out: cell viability (survival rate), TSGH.

For orientation: viability means a read-out of living cells in per cent, often relative to untreated cells. With `CN1CCN(c2c(F)cc3c(=O)c(C(=O)O)cn4c3c2OCN4C)CC1` [Marbofloxacin], the viability at 10 µM in test [1] (setting [14]) came out at 88.2%; in test [2] (setting [15]), 80.3%; in [3] (setting [16]), 78.4%; in test [4] (setting [17]) it was 83.8%; in [5] (setting [18]), 112%; in [6] (setting [19]), 81.2%. Further, the viability at 10 µM in test [7] (setting [20]) stood at 105%; in test [8] (setting [21]), 92.3%; in test [9] (setting [22]), 86.8%; in [10] (setting [23]), 95.6%; in test [12] it was 108%; in test [13] (setting [24]), 91.6%. The “inhibition effect on different cancer cell lines” value in [11] is listed as “significant inhibition effect”.

With `Cc1cccc(C(C)c2cnc[nH]2)c1C` (centres unmarked) [Medetomidine HCl], the viability at 10 µM was 78.4% in [1] (setting [14]); 49.8% in test [2] (setting [15]); 65.6% in [3] (setting [16]); 73.7% in test [4] (setting [17]); 37.4% in test [5] (setting [18]); 108% in test [6] (setting [19]). For the same molecule, the viability at 10 µM in [7] (setting [20]) amounted to 84.5%; in test [8] (setting [21]), 72.3%; in test [9] (setting [22]), 59.7%; in test [10] (setting [23]), 91.9%; in [12], 79.4%; in test [13] (setting [24]) it was 104%. Also, the “inhibition effect on different cancer cell lines” value in test [11] is listed as “significant inhibition effect”.

As to `CC(=O)O[C@]1(C(C)=O)CC[C@H]2[C@@H]3C[C@H](C)C4=CC(=O)CC[C@]4(C)[C@H]3CC[C@@]21C` [Medroxyprogesterone acetate], the viability at 10 µM in test [1] (setting [25]) is 70.4%; in [2] (setting [26]) it was 38.6%; in test [3] (setting [27]), 82%; in test [4] (setting [28]) it was 60.5%; in [5] (setting [29]), 66.9%; in test [6] (setting [30]), 72.3%. For the same molecule, the viability at 10 µM in test [7] (setting [31]) was determined as 51.7%; in test [8] (setting [32]) it was 69.3%; in [9] (setting [33]), 81%; in [10] (setting [34]), 78.6%; in test [12] it was 65.9%; in [13] (setting [35]) it was 79.4%. In addition, in test [11], the “inhibition effect on different cancer cell lines” value was “significant inhibition effect”.

For the molecule `COc1ccc(O)cc1` [Mequinol], the viability at 10 µM is 87.1% in test [1] (setting [14]); 67.5% in test [2] (setting [15]); 68% in test [3] (setting [16]); 118% in test [4] (setting [17]); 103% in test [5] (setting [18]); 57.2% in [6] (setting [19]). For the same molecule, the viability at 10 µM in [7] (setting [20]) came out at 112%; in test [8] (setting [21]), 74.4%; in [9] (setting [22]), 63.8%; in test [10] (setting [23]), 95.6%; in test [12], 85.2%; in [13] (setting [24]) it was 97%. The “inhibition effect on different cancer cell lines” value in [11] is “significant inhibition effect”.

Turning to `C[C@@H](O)[C@H]1C(=O)N2C(C(=O)O)=C(S[C@@H]3CN[C@H](C(=O)N(C)C)C3)[C@H](C)[C@H]12` [Meropenem], the viability at 10 µM was 111% in [1] (setting [25]); 55.4% in test [2] (setting [26]); 70.7% in test [3] (setting [27]); 46% in test [4] (setting [28]); 84.9% in test [5] (setting [29]); 68.3% in test [6] (setting [30]). Further, the viability at 10 µM amounted to 102% in [7] (setting [31]); 68.1% in test [8] (setting [32]); 65.1% in test [9] (setting [33]); 99.3% in test [10] (setting [34]); 87.3% in test [12]; 132% in test [13] (setting [35]). The “inhibition effect on different cancer cell lines” value in [11] is listed as “significant inhibition effect”.
